# Results published in patent US20080050387A1, “Non-Androgen Dependent Roles for Androgen Receptor and Non-Androgen Related Inhibitors of Androgen Receptor” (priority 2003, published 2008).
# Legend:
# AR [1] = assay: Mammalian two-hybrid assay hRad9 / AR in PC-3 cells; format: cell-based, human
# Description: PC-3, CWR22R, and LNCaP cell lines were maintained in […] supplemented with 10% fetal calf serum (FCS). Transient transfection for luciferase assays was carried out in 24-well plates (5×10^4 cells per well) using SuperFect as described previously (Lin, H. K., et al., Embo J 21:4037-48 (2002)). DNA mixtures in transfection assay were indicated in each figure. The total amount of transfected DNA was kept constant (1 μg) by adding the corresponding amounts of empty expression plasmids. After transfection, cells were cultured in […] supplemented with 5% charcoal-stripped FCS in the presence or absence of 10 nM dihydrotestosterone (DHT) for 18 h. Luciferase assays were performed as previously described (Yang, L., et al., J Biol Chem 278:16820-7 (2003)). In Western blotting assays, CWR22R or LNCaP cells were transfected by electroporation using 5×10^6 cells/0.4 ml of RPMI medium containing 2% FCS plus 9 μg of the indicated plasmids. 1 μg of EGFP expression vector was used for transfection efficiency. Electroporation was performed at 250 V and 950 μF using Gene Pulser II (Bio-Rad)
# MAPK = conditions: cited from earlier work
# AR [2] = assay: TSA effect on AR transactivation, reporter assay in COS-1 cells; format: cell-based, human; conditions: 1 nM TSA
# Description: H1299 and COS-1 cells were maintained in Dulbecco's modified Eagle's medium (DMEM) (Life Technologies, Inc.) supplemented with 10% heat inactivated fetal bovine serum (FBS). LNCap cells were maintained in RPMI 1640 supplemented with […]. All media contain 100 units penicillin, 100 μg/ml streptomycin and 2 mM L-glutamine. Cells were seeded to a density of 50-60% confluency for transfection. In transfections where H1299 and COS-1 cells were used, the calcium phosphate precipitation method was used as described (Pan H J, et al. 1999. Endocrine 11:321-327) unless otherwise noted. […] In other reporter gene assays, where ligand treatment was required, cell culture media were changed to DMEM containing 10% charcoal-dextran-stripped FBS (CD-FBS) 2 h before transfection. After 16-18 h transfection, cells were treated with medium containing either vehicle or ligands for another 20-24 h and then cells were harvested. With LNCap cells transfection, the cells were treated with fresh RPMI 1640 containing 10% CD-FBS before transfection with SuperFect performed according to the manufacturer's protocol (Qiagen). After transfection, cells were allowed to recover in fresh RPMI 1640 containing 10% CD-FBS for 8-12 h, and then treated with either vehicle or ligands for another 20-24 h before harvesting. Each experiment was repeated at least three times.
# COS-1 and H1299 = assay: TSA toxicity in transfected cells
# [3] = system: MAPK (GAL4-Elk1 transactivation); assay: GAL4-Elk1 reporter gene assay (MAPK activation) in MCF7 cells; format: cell-based, human
# Description: Cells were plated in 96-well plates and plasmids at 0.5 μg per well were transfected into cells using SuperFect (Qiagen). The medium was changed 2 h after transfection and cells were cultured in the medium containing 10% CDS-FBS or 0.2% HI-FBS for 16 h, followed by treatment with 50 ng/ml EGF, 100 ng/ml IGF-1,100 ng/ml HRG-α 0.1 nM E2, or 1 nM DHT for another 16 h. Cells were then harvested and the luciferase activity was analyzed using Dual-Luciferase Reporter Assay System (Promega). 5 ng pRL-TK per well was used as internal control.
# [4] = system: AR expression in AR^+/+ MCF7 cells; assay: AR siRNA transfection of AR+/+ MCF7 cells: Ki67 immunostaining, Ki67 and c-myc mRNA, S-phase entry; format: cell-based, human
# Description: All animal experimentation was conducted in accordance with accepted standards of humane animal care. Tissues were fixed in 4% paraformaldehyde for 24 h at 4° C. Paraffin-embedded tissues were sectioned (5-7 μm) onto Probe-On Plus charged slides (Fisher Scientific, Pittsburgh, Pa.). Fresh mammary gland tissues were frozen in liquid nitrogen and stored at −80° C. before RNA extraction. 3 μg of total RNA was reverse-transcribed (RT) and subjected to real-time PCR using iCycle (Bio-Rad). Primer sequences were designed by Beacon Designer II software (Bio-Rad) and the formula used were described previously (Bieche et al. 2001). β-Actin was used as an internal control.
# For IHC, sections were heated at 55° C. at least 2 h, deparaffinized in xylene, rehydrated, and washed in Tris-buffered saline (TBS)/pH 8.0. For antigen retrieval, slides were microwaved in 0.01 M sodium citrate/pH 6.0, and immersed with 1% hydrogen peroxide in methanol for 30 min, then blocked with 20% normal goat serum in TBS for 60 min. After washing with PBS, sections were incubated for 90 min in different antibody of diluted 1:200 to 1:500 in TBS containing 1% bovine serum albumin (BSA), followed by goat anti-rabbit biotinylated secondary antibody diluted 1:300 in TBS containing 1% BSA. Then sections were incubated with ABC solution for 30 min, followed by development with DAB peroxidase substrate kit (Vector Laboratories) for 5 min. Slides were counterstained with hematoxylin for 30 sec, then dehydrated, cleaned in xylene, and mounted. Primary antibody was replaced with normal rabbit IgG or 1% BSA in TBS for negative controls. For BrdU labeling, BrdU reagent and BrdU staining kit were purchased from Zymed Laboratories.
# A small interfering RNA was expressed in mammalian cells by transfection of a DNA-based vector BS/U6 (Sui et al. 2002) containing a homologous sequence ([…]-TAGCTAC SEQ ID NO:9), a 6-bp spacer (CTCGAG), an inverted homologous sequence ([…] SEQ ID NO:10), and 5 Ts, at the transcription initiation site of the U6 promoter. See SEQ ID NO. 11 and 12 for fall AR siRNA.
# AR [5] = assay: Luc reporter assay in stably transfected CWR22R cells; format: cell-based, human; conditions: CWR22R-S9A-GSK3β cells, doxycycline induction
# Description: (§1) COS-1 and PC-3 cells were maintained in early to mid-log phase in DMEM medium, supplemented with 10% fetal bovine serum (FBS), 50 units/ml penicillin and 50 μg/ml streptormnycin in incubators with humidified air and 5% carbon dioxide at 37° C. LNCaP cells were maintained in RPMI (GIBCO/BRL) medium. Twenty-four h prior to transfection, cells washed with Hanks' buffered saline solution, trypsinized, and seeded to be a density of 40-60% confluence for transfection. Cells in 12 well plates were refed with fresh medium 2 hours before transfection and transfected according to the “SuperFect Transfection” instructions (QIAGEN). After 2-3 h incubation, cells were treated with medium supplemented with charcoal-dextran treated FBS containing either ethanol or ligands. Cells were further incubated at 37° C. for 24 h, washed with PBS, and harvested.
# The S9A-GSK3β gene was inserted into pBig vector with hygromycin resistance. The S9A-GSK3β-transfected CWR22R cells were selected and maintained in RPMI medium containing 50 μg/ml hygromycin (GIBCO).
# AR [6] = assay: AR transactivation luciferase assay in COS-1 cells with GSK3β; format: cell-based, human; conditions: ARE4-Luc, 10 nM DHT
# Description: as §1
# Target sequence in this assay (P10275 with tags, fused parts or gaps DEL79-80/DUP473-473): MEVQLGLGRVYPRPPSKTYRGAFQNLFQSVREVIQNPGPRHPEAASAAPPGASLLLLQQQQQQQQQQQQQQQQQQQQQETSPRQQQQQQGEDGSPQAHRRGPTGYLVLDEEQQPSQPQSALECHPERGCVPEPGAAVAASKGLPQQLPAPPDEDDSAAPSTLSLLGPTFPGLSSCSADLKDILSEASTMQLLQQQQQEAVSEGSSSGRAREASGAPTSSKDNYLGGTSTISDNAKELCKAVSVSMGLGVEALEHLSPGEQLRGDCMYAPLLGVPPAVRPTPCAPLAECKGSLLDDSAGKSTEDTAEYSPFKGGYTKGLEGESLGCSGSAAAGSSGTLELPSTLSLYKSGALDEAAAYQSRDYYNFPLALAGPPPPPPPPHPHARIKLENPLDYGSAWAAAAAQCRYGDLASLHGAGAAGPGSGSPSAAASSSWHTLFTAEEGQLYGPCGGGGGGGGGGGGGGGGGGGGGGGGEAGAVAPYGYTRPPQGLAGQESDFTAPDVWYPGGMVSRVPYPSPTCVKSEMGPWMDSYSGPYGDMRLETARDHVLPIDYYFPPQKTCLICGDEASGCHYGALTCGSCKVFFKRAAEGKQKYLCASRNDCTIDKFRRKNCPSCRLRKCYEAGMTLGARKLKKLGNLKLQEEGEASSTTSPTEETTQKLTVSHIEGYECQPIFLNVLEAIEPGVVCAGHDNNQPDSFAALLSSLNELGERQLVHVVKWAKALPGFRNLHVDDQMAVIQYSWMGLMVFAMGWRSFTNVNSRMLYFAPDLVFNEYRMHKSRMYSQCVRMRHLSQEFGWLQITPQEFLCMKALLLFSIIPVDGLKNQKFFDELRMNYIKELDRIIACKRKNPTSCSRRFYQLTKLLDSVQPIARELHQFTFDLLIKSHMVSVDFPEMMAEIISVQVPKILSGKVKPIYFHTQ
# CWR22R cells = assay: MTT growth assay of stably transfected CWR22R cells; format: cell-based, human; conditions: CWR22R-S9A-GSK3β cells, 10 nM DHT, 2 μg/ml doxycycline, 5 days
# Description: The MTT assay is a quantitative colorimetric assay for mammalian cell survival and proliferation. The 5×10^3 CWR22R cells were seeded in 24-well plates and incubated in RPMI medium 1640 with 5% CS-FCS for 48 h. Cells were then treated with ethanol, 10 nMDHT, and/or 2 μg/ml doxycycline for another 5 days. Then 200 μl of MTT (5 mg/ml; Sigma) was added into the each well with 1 ml of medium for 3 h at 37° C. After incubation, 2 ml of 0.04 M HCl in isopropyl alcohol was added into each well. After 5-min incubation at room temperature, the absorbance was read at a test wavelength of 570 nm.
# [7] = AR siRNA-transfected AR^+/+ MCF7 cells
compound,measurement,setting,value
"CC(C)(O)C(=O)Nc1ccc([N+](=O)[O-])c(C(F)(F)F)c1 [HF, hydroxyflutamide, reference compound]",androgen-induced interaction between AR and hRad9,"AR [1]; 10^−5 M HF, 10^−8 M DHT",inhibited
COc1cccc(-c2cc(=O)c3ccccc3o2)c1N [PD098059],"Her2/Neu-, H-Ras- or C-myc-initiated mammary tumor growth",MAPK; Amundadottir and Leder 1998,inhibit
same,mammary gland alveolar morphogenesis,MAPK; Niemann et al. 1998,inhibit
"CC(/C=C/C(=O)NO)=C\[C@@H](C)C(=O)c1ccc(N(C)C)cc1 [TSA, trichostatin A]",DHT-induced AR transactivation,AR [2],enhanced
same,TSA concentration causing significant cell death,COS-1 and H1299,≥ 10 nM
same,toxic effect,COS-1 and H1299; 1 nM TSA,no obvious toxic effect
"N#CC(=C(/N)Sc1ccccc1N)/C(C#N)=C(\N)Sc1ccccc1N [U0126, reference compound]",AR-activated GAL4-Elk1 activity,"[3]; AR-FL-activated, pG5-luc reporter",diminished
AR siRNA: small interfering RNA against AR expressed from the DNA-based vector BS/U6 (GGGCCCCTGGATGGATAGCTACCTCGAGGTAGCTATCCATCCAGGGGCC),Ki67 immunostaining,[4]; [7],lower degree
same,mRNA level of Ki67 reduced by,[4]; [7],42%
same,mRNA level of c-myc reduced by,[4]; [7],81%
same,number of cells entering S-phase of the cell cycle,"[4]; AR^+/+ MCF7 cells, IGF-I/EGF/HRG-α",diminish
same,IGF-I/EGF/HRG-α-induced MAPK activation,[3]; AR^+/+ MCF7 cells transfected with AR siRNA,diminish
PKKFRSLFFGSI [GAL4-FXXLF fusion peptides],interaction with AR,AR [1]; 10 nM DHT,Androgen-dependent interactions were demonstrated
S9A-GSK3β: constitutively active form of GSK3β,AR transactivation reduced by,AR [5],30%
same,effect on AR activity,AR [6],strongly inhibited
same,cell growth (MTT assay),CWR22R cells,obvious growth arrest
